Reference: patent US10426778B2, “Prophylactic agent and/or therapeutic agent for diffuse large B-cell lymphoma” (ONO PHARMACEUTICAL CO., LTD., priority 2014, dated 2019)

System: ABC-DLBCL patients
Assay: Open label multicenter non-randomized clinical trial of the present compound as monotherapy in recurrent or refractory ABC-DLBCL patients
Assay type: in vivo, human
Protocol: A clinical trial was conducted by an open label multicenter non-randomized test by administering 6-amino-9-[(3R)-1-(2-butynoyl)-3-pyrrolidinyl]-7-(4-phenoxyphenyl)-7,9-dihydro-8H-purin-8-one hydrochloride, the present compound, as monotherapy to an ABC-DLBCL patient.
Among the patients who had already received treatment, who had been diagnosed as a non-Hodgkin's lymphoma, for whom higher preference order of treatment was not present, and who fell under the following definition of “recurrent” or “refractory”, patients satisfying the following conditions entered.
Recurrent: Patients who attained Complete Response (CR), Complete Response, unconfirmed (CRu), CR with incomplete marrow recovery (CRi) or Partial Response (PR) for 6 months or longer after the last treatment of non-Hodgkin's lymphoma, and for whom pathological advance was recognized.
Refractory: Patients who could not attain CR, CRu, CRi or PR after the last treatment of non-Hodgkin's lymphoma, or patients who acquired CR, CRu, CRi or PR for shorter than 6 months after the last treatment, but for whom pathological advance was recognized.
Condition: Two or more NHL treatments have already failed.
A fixed dose of the present compound was orally administered once per day, with one cycle being treatment for 28 days in 3 patients per one cohort. The schedule was such that this cycle was conducted until 6 cycles, and could be maximally extended to 24 cycles. In the first cohort, all the patients were administered at a fixed dose of 20 mg of the present compound.
Regarding the NHL patients who entered under the above conditions, an immunohistochemical method or gene expression profiling was conducted according to a conventional method using a diagnostic sample obtained by tissue biopsy excising a part of affected lymph node, so that patients affected with ABC-DLBCL were extracted.
Primary evaluation items were safety, tolerance and dose limiting toxicities (DLTs). These items were evaluated using manifestation of adverse event, physical examination, clinical test, vital sign and cardiograph. In addition, the intensity of the adverse event was determined using Common Terminology Criteria for Adverse Events (CTCAE) version 4.0 of the National Cancer Institute.
Secondary evaluation items were Overall Response Rate (ORR), Complete Response Rate (CR, CRu, CRi), Partial Response Rate (PR), Progression Free Survival (PFS), Overall Survival (OS), Duration of Response, Event Free Survival (EFS), Pharmacokinetics (PK) and Pharmacodynamics (PD). In addition, the evaluations of CR, CRu and PR were conducted by referring to evaluation criteria described in Journal of Clinical Oncology, Vol. 17, No. 4, pages 1244-1253, 1999.
Biopsy samples of tumor were obtained from ABC-DLBCL patients before administration of the present compound. From the samples, genomic DNA was extracted by conventional method, and the presence or absence of CD79B mutation was confirmed in accordance with the method described in Nature, No. 463, pages 88-92, 2010. As a result, it was seen that, among the 8 ABC-DLBCL patients, all of 7 evaluable patients had CD79B wild-type gene background.

[1] = in 8 cases, cohort 4 (160 mg) or cohort 5 (520 mg)

Structure (SMILES): CC#CC(=O)N1CC[C@@H](n2c(=O)n(-c3ccc(Oc4ccccc4)cc3)c3c(N)ncnc32)C1.Cl [present compound, 6-amino-9-[(3R)-1-(2-butynoyl)-3-pyrrolidinyl]-7-(4-phenoxyphenyl)-7,9-dihydro-8H-purin-8-one hydrochloride]
- Overall Response Rate (ORR) in ABC-DLBCL patients having CD79B wild-type (6 cases in 7 cases): 85%
- bleeding-associated event such as intracranial bleeding as adverse event (13 ABC-DLBCL patients): not seen at all
- tolerance (13 ABC-DLBCL patients administered the present compound): high tolerance
- Overall Response Rate (ORR) (ABC-DLBCL patients, 8 cases, cohort 4 (160 mg) or cohort 5 (520 mg), oral once per day): 75%
- adverse events classified into grade 3 (drug reaction and lymphopenia) (among the 5 cases with adverse event of 13 cases, CTCAE version 4.0): 2 cases
- PR cases [1]: 6 cases
- disease progression cases [1]: 2 cases
- median value of decrease in lymph node (in the 6 PR cases, cohort 4 (160 mg) or cohort 5 (520 mg)): 81.5%
- decrease in lymph node swelling recognized (of 8 ABC-DLBCL patients, first administration cycle, oral once per day): 6 patients
- adverse event associated with the present compound (of 13 cases): 5 cases
